Laboratory results: the supplement of paper PMC9663587

Each cell line was assayed with CC(=O)c1c(C)c2cnc(Nc3ccc(N4CCN(CCOCCOCCOCCNC(=O)COc5cccc6c5C(=O)N(C5CCC(=O)NC5=O)C6=O)CC4)cn3)nc2n(C2CCCC2)c1=O [BSJ-03-123] (assay: increase in dead-cell fraction, 72 h; higher = more death). Conditions: 10 µM.
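Also: breast cancer cell lines in 384-well plates, stained with Hoechst plus LIVE/DEAD far red dye and imaged, cells above an LDR intensity threshold counted dead, Hoechst-negative corpses included.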

| Cell Line | increase in dead-cell fraction |
| --- | --- |
| SUM149 | 0.217 |

The cell lines below were run with CCc1cnn2c(NCc3ccc[n+]([O-])c3)cc(N3CCCC[C@H]3CCO)nc12 in the same assay as above. Conditions: 0.0001 µM.

| Cell Line | increase in dead-cell fraction |
| --- | --- |
| PDXHCI002 | -0.0076 |
| SKBR3 | 0.0102 |
| SUM44PE | 0.0041 |
| SUM52PE | 0.0037 |
| SUM149 | -0.0003 |

Same assay, conditions: 0.0003162 µM

| Cell Line | increase in dead-cell fraction |
| --- | --- |
| PDXHCI002 | -0.0064 |
| SKBR3 | 0.0115 |
| SUM44PE | -0.0148 |
| SUM52PE | 0.0003 |
| SUM149 | -0.0062 |

Same assay, conditions: 0.001 µM

| Cell Line | increase in dead-cell fraction |
| --- | --- |
| PDXHCI002 | -0.0055 |
| SKBR3 | 0.0049 |
| SUM44PE | 0.0007 |
| SUM52PE | 0.0018 |
| SUM149 | 0.0017 |

Same assay, conditions: 0.003162 µM

| Cell Line | increase in dead-cell fraction |
| --- | --- |
| PDXHCI002 | -0.0087 |
| SKBR3 | 0.011 |
| SUM44PE | -0.0141 |
| SUM52PE | 0.0012 |
| SUM149 | 0.0022 |

Same assay, conditions: 0.01 µM

| Cell Line | increase in dead-cell fraction |
| --- | --- |
| PDXHCI002 | -0.0047 |
| SKBR3 | 0.303 |
| SUM44PE | 0.102 |
| SUM52PE | 0.006 |
| SUM149 | 0.021 |

Same assay, conditions: 0.03162 µM

| Cell Line | increase in dead-cell fraction |
| --- | --- |
| PDXHCI002 | 0.451 |
| SKBR3 | 0.574 |
| SUM44PE | 0.894 |
| SUM52PE | 0.101 |
| SUM149 | 0.756 |

Same assay, conditions: 0.1 µM

| Cell Line | increase in dead-cell fraction |
| --- | --- |
| PDXHCI002 | 0.504 |
| SKBR3 | 0.595 |
| SUM52PE | 0.333 |
| SUM149 | 0.832 |

Same assay, conditions: 0.3162 µM

| Cell Line | increase in dead-cell fraction |
| --- | --- |
| PDXHCI002 | 0.458 |
| SKBR3 | 0.612 |
| SUM52PE | 0.419 |
| SUM149 | 0.831 |

Same assay, conditions: 1 µM

| Cell Line | increase in dead-cell fraction |
| --- | --- |
| PDXHCI002 | 0.44 |
| SKBR3 | 0.583 |
| SUM52PE | 0.155 |
| SUM149 | 0.814 |

These cell lines were tested with C=CC(=O)Nc1ccc(C(=O)Nc2[nH]nc3c2CN(C(=O)N[C@H](CN(C)C)c2ccccc2)C3(C)C)cc1 [YKL-5-124] in the same assay as above. Conditions: 0.001 µM.

| Cell Line | increase in dead-cell fraction |
| --- | --- |
| PDXHCI002 | 0.156 |
| SKBR3 | 0.0064 |
| SUM44PE | 0.376 |
| SUM52PE | 0.0072 |
| SUM149 | 0.0758 |

Same assay, conditions: 0.003162 µM

| Cell Line | increase in dead-cell fraction |
| --- | --- |
| PDXHCI002 | 0.144 |
| SKBR3 | 0.0231 |
| SUM44PE | 0.0121 |
| SUM52PE | 0.0054 |
| SUM149 | 0.1 |

Same assay, conditions: 0.01 µM

| Cell Line | increase in dead-cell fraction |
| --- | --- |
| PDXHCI002 | 0.185 |
| SKBR3 | 0.0496 |
| SUM44PE | 0.0391 |
| SUM52PE | 0.0099 |
| SUM149 | 0.103 |

Same assay, conditions: 0.03162 µM

| Cell Line | increase in dead-cell fraction |
| --- | --- |
| PDXHCI002 | 0.172 |
| SKBR3 | 0.0434 |
| SUM44PE | 0.053 |
| SUM52PE | 0.0108 |
| SUM149 | 0.0843 |

Same assay, conditions: 0.1 µM

| Cell Line | increase in dead-cell fraction |
| --- | --- |
| PDXHCI002 | 0.186 |
| SKBR3 | 0.0537 |
| SUM44PE | 0.0951 |
| SUM52PE | 0.013 |
| SUM149 | 0.124 |

Same assay, conditions: 0.3162 µM

| Cell Line | increase in dead-cell fraction |
| --- | --- |
| PDXHCI002 | 0.234 |
| SKBR3 | 0.0626 |
| SUM44PE | 0.0965 |
| SUM52PE | 0.0189 |
| SUM149 | 0.124 |

Same assay, conditions: 1 µM

| Cell Line | increase in dead-cell fraction |
| --- | --- |
| PDXHCI002 | 0.186 |
| SKBR3 | 0.0336 |
| SUM44PE | 0.127 |
| SUM52PE | 0.009 |
| SUM149 | 0.0859 |

Same assay, conditions: 3.162 µM

| Cell Line | increase in dead-cell fraction |
| --- | --- |
| PDXHCI002 | 0.255 |
| SKBR3 | 0.0844 |
| SUM44PE | 0.447 |
| SUM52PE | 0.0202 |
| SUM149 | 0.172 |

Same assay, conditions: 10 µM

| Cell Line | increase in dead-cell fraction |
| --- | --- |
| PDXHCI002 | 0.182 |
| SKBR3 | 0.316 |
| SUM52PE | 0.0275 |
| SUM149 | 0.199 |

The cell lines below were run with CC(=O)c1c(C)c2cnc(Nc3ccc(N4CCNCC4)cn3)nc2n(C2CCCC2)c1=O in the same assay as above. Conditions: 0.0003162 µM.

| Cell Line | increase in dead-cell fraction |
| --- | --- |
| PDXHCI002 | -0.0007 |
| SKBR3 | -0.0013 |
| SUM44PE | -0.0301 |
| SUM52PE | 0.0036 |
| SUM149 | 0.0026 |

Same assay, conditions: 0.001 µM

| Cell Line | increase in dead-cell fraction |
| --- | --- |
| PDXHCI002 | 0.0001 |
| SKBR3 | 0.0036 |
| SUM44PE | 0.0185 |
| SUM52PE | -0.0018 |
| SUM149 | 0.0019 |

Same assay, conditions: 0.003162 µM

| Cell Line | increase in dead-cell fraction |
| --- | --- |
| PDXHCI002 | -0.0134 |
| SKBR3 | 0.0075 |
| SUM44PE | 0.0057 |
| SUM52PE | -0.0008 |
| SUM149 | 0.0012 |

Same assay, conditions: 0.01 µM

| Cell Line | increase in dead-cell fraction |
| --- | --- |
| PDXHCI002 | -0.0207 |
| SKBR3 | 0.015 |
| SUM44PE | -0.0159 |
| SUM52PE | 0.0002 |
| SUM149 | -0.0029 |

Same assay, conditions: 0.03162 µM

| Cell Line | increase in dead-cell fraction |
| --- | --- |
| PDXHCI002 | -0.015 |
| SKBR3 | 0.0198 |
| SUM44PE | 0.0328 |
| SUM52PE | -0.0011 |
| SUM149 | -0.003 |

Same assay, conditions: 0.1 µM

| Cell Line | increase in dead-cell fraction |
| --- | --- |
| PDXHCI002 | -0.0124 |
| SKBR3 | 0.0318 |
| SUM44PE | 0.0351 |
| SUM52PE | 0.0033 |
| SUM149 | 0.0002 |

Same assay, conditions: 0.3162 µM

| Cell Line | increase in dead-cell fraction |
| --- | --- |
| PDXHCI002 | -0.0203 |
| SKBR3 | 0.0437 |
| SUM44PE | 0.0647 |
| SUM52PE | 0.0047 |
| SUM149 | -0.0014 |

Same assay, conditions: 1 µM

| Cell Line | increase in dead-cell fraction |
| --- | --- |
| PDXHCI002 | -0.0173 |
| SKBR3 | 0.0364 |
| SUM44PE | -0.0062 |
| SUM52PE | 0.006 |
| SUM149 | -0.0001 |

Same assay, conditions: 3.162 µM

| Cell Line | increase in dead-cell fraction |
| --- | --- |
| PDXHCI002 | -0.0092 |
| SKBR3 | 0.0469 |
| SUM44PE | 0.0016 |
| SUM52PE | 0.0091 |
| SUM149 | 0.0028 |
